For series [1] the following is noted: in vivo; cited from earlier work.
The test system of a further series is anticoagulant activity. Nature of the series: Biological (anticoagulant) activity of heparin and PVP-heparins. Conditions: Table I; heparin 100. In kind it is biochemical.

On to Heparin, for which the “Solubility in Water” value is 70 g/100 ml. Moreover, in series [1], the “dose dependence of half-life in man” value is reported as “does not increase” and the “half-life of heparin in man” value is recorded as 1 - 11/2. Also, in the series with anticoagulant activity, the “% Biological Activity” value is recorded as 100%.

These data come from patent US4239664A, “Anti-thrombogenic PVP-heparin polymer” (Research Corporation, priority 1978, dated 1980).
